Tested on: C57BL/6J mice injected with AAV (LacZ transgene)
Experiment: In vivo mouse AAV model: CD8 TEM and lacZ tetramer staining of PBMCs and splenocytes
Conditions: chow 30 mg/kg from 15 days prior to AAV injection; day 14 post AAV; versus AAV group; N=10
Method: In-vivo mice experiments. C57BL/6J mice were purchased from Jackson Laboratories. 6-8-week male mice were divided into 3 groups—PBS group, AAV group and AAV+IRAK4 group all groups with 10 mice each. Zimlovisertib IRAK4 inhibitor (Synonyms: PF-06650833) Cat. No.: HY-19836 (MedChemExpress) was mixed with mouse chow Catalog #2016, Teklad Global 16% Protein Rodent Diets https://www.inotivco.com/rodent-natural-ingredient-2016-diets at a dose of 30 mg/kg. AAV+IRAK4 group was fed the chow with Zimlovisertib IRAK4 inhibitor 15 days prior to AAV injection whereas PBS and AAV group were fed with mouse chow Catalog #2016, Teklad Global 16% Protein Rodent Diets https://www.inotivco.com/rodent-natural-ingredient-2016-diets. PBS group mice were injected intramuscularly with 100 ul PBS, AAV group was injected intramuscularly with 1e11 vg per quadricep muscle of both legs, 100 ul volume.
The same experiment design was followed with n=6 mice in each group PBS group, AAV group and AAV+IRAK4 degrader PROTAC IRAK4 degrader-1 Cat. No.: HY-129966 (MedChemExpress) that was mixed with chow at 100 mg/kg and fed to mice 15 days prior to AAV injection. […] AAV capsid used in the study had LacZ transgene. All animal experiments were conducted in accordance with the Institutional Animal Care and Use Committees at Sanofi, Framingham. Submandibular bleeds were performed weekly, and necropsy was performed three weeks post AAV injection.
PBMC isolation and surface staining. 120 ul blood was collected in K2EDTA coated tubes. The blood was mixed with DBPS at 1:1 ration and pipetted into a separate tube containing Ficoll (GE17-5442-02) to ensure no mixing of the blood and Ficoll phases. The mixture was centrifuged at 2000 RPM for 25 minutes at room temperature (9 acceleration and no braking). The buffy coat containing the peripheral blood mononuclear cells (PBMCs) was collected, transferred to a new tube, and centrifuged for five minutes at 400 RCF. PBMCs were washed three times with phosphate buffered saline (PBS) containing 1% fetal bovine serum (FBS) or fetal calf serum (FCS) and counted. The PBMC cells thus obtained were stained with different antibodies to quantify percentage of different immune cell subsets in peripheral blood.
PBMC CD8 TEM and lacZ tetramer staining. The PBMC was isolated from ˜120 μl of mouse blood, and it was transferred to a 96-well U-bottom plate. […]

CC[C@@H]1[C@H](F)C(=O)N[C@@H]1COc1nccc2cc(C(N)=O)c(OC)cc12 [zimlovisertib, 1-[[(2S,3S,4S)-3-Ethyl-4-fluoro-5-oxo-2-pyrrolidinyl]methoxy]-7-methoxy-6-isoquinolinecarboxamide]
CD44+CD62L+ effector memory cells in PBMCs: significant reduction | LacZ tetramer positive CD8 T cells in PBMCs: significant reduction

From patent US20230405151A1, “USE OF IRAK4 MODULATORS FOR GENE THERAPY” (Genzyme Corporation, priority 2022, published 2023)
